Measurements from ChEMBL document CHEMBL1201862, “PubChem BioAssay data set” (2004).
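Five compound concentrations were applied to cells in 96-well plates for 48 hours; endpoints were derived by simple linear interpolation of the resulting dose-response curve. Here, GI50 denotes the concentration required for 50% inhibition of growth.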 Active and inactive are the calls of the source. No stated cut-off is given here; in the data, active = GI50 up to about 1.1 µM and inactive = higher.

Legend:
Experiment in all cases: DTP human tumour cell line panel, 48 h
CCRF-CEM = system: CCRF-CEM
HL-60 = system: HL-60
COLO 205 = system: COLO 205
NCI-H460 = system: NCI-H460
HOP-62 = system: HOP-62
SK-MEL-28 = system: SK-MEL-28
U-251 = system: U-251
CAKI-1 = system: CAKI-1
HOP-92 = system: HOP-92
SNB-75 = system: SNB-75
DLD-1 = system: DLD-1
HCT-116 = system: HCT-116
K562 = system: K562
UACC-62 = system: UACC-62
OVCAR-5 = system: OVCAR-5
DMS-273 = system: DMS-273
MDA-MB-435 = system: MDA-MB-435
DU-145 = system: DU-145
T47D = system: T47D
MDA-N = system: MDA-N

| Compound | GI50 (CCRF-CEM) | GI50 (HL-60) | GI50 (COLO 205) | GI50 (NCI-H460) | GI50 (HOP-62) | GI50 (SK-MEL-28) | GI50 (U-251) | GI50 (CAKI-1) | GI50 (HOP-92) | GI50 (SNB-75) | GI50 (DLD-1) | GI50 (HCT-116) | GI50 (K562) | GI50 (UACC-62) | GI50 (OVCAR-5) | GI50 (DMS-273) | GI50 (MDA-MB-435) | GI50 (DU-145) | GI50 (T47D) | GI50 (MDA-N) |
| --- | --- | --- | --- | --- | --- | --- | --- | --- | --- | --- | --- | --- | --- | --- | --- | --- | --- | --- | --- | --- |
| Cc1c(C(=N)N)oc2ccccc12 | > 100 µM (inactive) | > 100 µM (inactive) | > 100 µM (inactive) | > 100 µM (inactive) | > 100 µM (inactive) | > 100 µM (inactive) | > 100 µM (inactive) | > 100 µM (inactive) | > 100 µM (inactive) | 79.6 µM (inactive) | > 100 µM (inactive) | > 100 µM (inactive) | > 100 µM (inactive) | > 100 µM (inactive) | – | – | – | – | – | – |
| Cn1cnc([N+](=O)[O-])c1Sc1nc2cc(Cl)c(F)cc2[nH]1 | – | – | 6.43 µM (inactive) | 10.3 µM (inactive) | 74.5 µM (inactive) | 13.5 µM (inactive) | 8.41 µM (inactive) | 2.58 µM (inactive) | 13.8 µM (inactive) | 13.8 µM (inactive) | 7.67 µM (inactive) | 6.9 µM (inactive) | – | 14 µM (inactive) | 16.8 µM (inactive) | 3.54 µM (inactive) | – | – | – | – |
| CCc1ccc(Nc2ccc([N+](=O)[O-])cc2[N+](=O)[O-])cc1 | 35.2 µM (inactive) | 26.8 µM (inactive) | – | 69.2 µM (inactive) | > 100 µM (inactive) | > 100 µM (inactive) | 77.1 µM (inactive) | 39.1 µM (inactive) | – | 39.7 µM (inactive) | > 100 µM (inactive) | 36.7 µM (inactive) | 29.8 µM (inactive) | 56.6 µM (inactive) | > 100 µM (inactive) | 96.6 µM (inactive) | – | – | – | – |
| COC(=O)c1cc2cc(OC)c(OC)cc2cc(C(=O)OC)c1=O | > 100 µM (inactive) | > 100 µM (inactive) | > 100 µM (inactive) | > 100 µM (inactive) | > 100 µM (inactive) | – | > 100 µM (inactive) | > 100 µM (inactive) | > 100 µM (inactive) | > 100 µM (inactive) | > 100 µM (inactive) | > 100 µM (inactive) | > 100 µM (inactive) | > 100 µM (inactive) | > 100 µM (inactive) | > 100 µM (inactive) | – | – | – | – |
| O=C1c2ccccc2C(=O)C2C3c4ccccc4C(c4ccccc43)C12 (configuration not stated) | 10.7 µM (inactive) | – | 45 µM (inactive) | 50.2 µM (inactive) | 30 µM (inactive) | 29.8 µM (inactive) | 31 µM (inactive) | – | – | 15.6 µM (inactive) | > 100 µM (inactive) | 28.8 µM (inactive) | 15.9 µM (inactive) | 33 µM (inactive) | – | 19.1 µM (inactive) | – | – | – | – |
| COC1C(OC(=O)c2ccc(C)[nH]2)C(O)C(Oc2ccc3c(O)c(NC(=O)c4c[nH]c(C(=O)Nc5c(O)c6ccc(OC7OC(C)(C)C(OC)C(OC(=O)c8ccc(C)[nH]8)C7O)c(C)c6oc5=O)c4C)c(=O)oc3c2C)OC1(C)C (configuration not stated) | 2.34 µM (inactive) | 1.83 µM (inactive) | 1.87 µM (inactive) | 1.88 µM (inactive) | – | 0.475 µM (active) | 0.597 µM (active) | 2.75 µM (inactive) | 2.44 µM (inactive) | 0.708 µM (active) | 1.86 µM (inactive) | – | 2.84 µM (inactive) | 0.724 µM (active) | 2.84 µM (inactive) | 2.86 µM (inactive) | – | – | – | – |
| CC(O)c1ccc[n+](Cc2ccccc2)c1 (configuration not stated) | > 400 µM (inactive) | > 400 µM (inactive) | > 400 µM (inactive) | > 400 µM (inactive) | > 400 µM (inactive) | > 400 µM (inactive) | > 400 µM (inactive) | > 400 µM (inactive) | > 400 µM (inactive) | – | > 400 µM (inactive) | > 400 µM (inactive) | > 400 µM (inactive) | > 400 µM (inactive) | > 400 µM (inactive) | > 400 µM (inactive) | – | – | – | – |
| N#CC(C(=O)/C(=N/N)C(C#N)c1ccccc1)c1ccccc1 (configuration not stated) | > 100 µM (inactive) | > 100 µM (inactive) | – | > 100 µM (inactive) | > 100 µM (inactive) | > 100 µM (inactive) | > 100 µM (inactive) | > 100 µM (inactive) | > 100 µM (inactive) | – | > 100 µM (inactive) | > 100 µM (inactive) | > 100 µM (inactive) | > 100 µM (inactive) | > 100 µM (inactive) | – | – | – | – | – |
| c1cncc(C2c3[nH]c4ccccc4c3CCN2CCN2CCCCC2)c1 (configuration not stated) | 56.4 µM (inactive) | 41.5 µM (inactive) | – | > 100 µM (inactive) | > 100 µM (inactive) | 46.7 µM (inactive) | > 100 µM (inactive) | > 100 µM (inactive) | 30 µM (inactive) | 43.6 µM (inactive) | > 100 µM (inactive) | > 100 µM (inactive) | 35.6 µM (inactive) | > 100 µM (inactive) | > 100 µM (inactive) | > 100 µM (inactive) | – | – | – | – |
| CN(C)CCNC(=O)c1ccc(Cl)c2c(Nc3ccc(S(N)(=O)=O)cc3)c3ccccc3nc12 | – | 0.553 µM (active) | 0.61 µM (active) | 0.706 µM (active) | 8.45 µM (inactive) | 2.67 µM (inactive) | 2.16 µM (inactive) | 4.54 µM (inactive) | 1.43 µM (inactive) | 1.33 µM (inactive) | 1.31 µM (inactive) | 0.29 µM (active) | 0.612 µM (active) | 1.56 µM (inactive) | 2.95 µM (inactive) | 1.55 µM (inactive) | – | – | – | – |
| CCOC(=O)/C(=C/c1cccc(C#N)c1)N(CC)CC | > 100 µM (inactive) | > 100 µM (inactive) | > 100 µM (inactive) | > 100 µM (inactive) | > 100 µM (inactive) | > 100 µM (inactive) | > 100 µM (inactive) | > 100 µM (inactive) | > 100 µM (inactive) | > 100 µM (inactive) | > 100 µM (inactive) | > 100 µM (inactive) | > 100 µM (inactive) | > 100 µM (inactive) | > 100 µM (inactive) | – | – | – | – | – |
| COc1ccc(Cl)cc1NC(=O)O/N=C(\Cl)C(C)C | 1.04 µM (active) | 2.16 µM (inactive) | 2.19 µM (inactive) | 17.1 µM (inactive) | 18.4 µM (inactive) | 18.4 µM (inactive) | 26.4 µM (inactive) | 1.82 µM (inactive) | 1.97 µM (inactive) | 16.4 µM (inactive) | – | 7.19 µM (inactive) | 1.98 µM (inactive) | 12.9 µM (inactive) | 18.4 µM (inactive) | – | 18.3 µM (inactive) | 19.3 µM (inactive) | 3.38 µM (inactive) | 11.4 µM (inactive) |
| N#C/C(=C1\OC(=N)C(c2ccc(Cl)cc2Cl)C1=O)c1ccc(Cl)cc1Cl (configuration not stated) | – | > 100 µM (inactive) | > 100 µM (inactive) | – | – | > 100 µM (inactive) | – | > 100 µM (inactive) | 80.5 µM (inactive) | 58.9 µM (inactive) | > 100 µM (inactive) | > 100 µM (inactive) | > 100 µM (inactive) | > 100 µM (inactive) | > 100 µM (inactive) | > 100 µM (inactive) | – | – | – | – |
| C[C@]12CC(C#N)C(=O)C(O)=C1CC[C@@H]1C2CC[C@@]2(C)C1CC[C@@H]2O (some centres not stated) | 45.1 µM (inactive) | 13.8 µM (inactive) | 48.5 µM (inactive) | 41.8 µM (inactive) | 80.4 µM (inactive) | 40.9 µM (inactive) | > 100 µM (inactive) | – | 10.7 µM (inactive) | 9.91 µM (inactive) | 58.3 µM (inactive) | 41.1 µM (inactive) | 46.9 µM (inactive) | 3.99 µM (inactive) | 27.3 µM (inactive) | 17.3 µM (inactive) | – | – | – | – |
| COc1ccc(C2=NN(c3ccccc3)C[N+](c3ccc(C)cc3)=N2)cc1 | 19.3 µM (inactive) | 27.7 µM (inactive) | 31.3 µM (inactive) | 65.5 µM (inactive) | > 100 µM (inactive) | 58.9 µM (inactive) | 20.6 µM (inactive) | – | – | – | 40.6 µM (inactive) | 35.1 µM (inactive) | 14.6 µM (inactive) | – | 29.9 µM (inactive) | > 10 µM (inactive) | – | – | – | – |
| CC1=Nc2ccccc2/C1=C\c1c(C)[nH]c2ccccc12 | 5.04 µM (inactive) | 5.85 µM (inactive) | 19.1 µM (inactive) | 17.8 µM (inactive) | 23.2 µM (inactive) | 16.6 µM (inactive) | 15.9 µM (inactive) | 13.8 µM (inactive) | 3.73 µM (inactive) | 18.7 µM (inactive) | – | 11.4 µM (inactive) | 7.21 µM (inactive) | 5.26 µM (inactive) | 23.4 µM (inactive) | – | 6.59 µM (inactive) | 15.8 µM (inactive) | 9.53 µM (inactive) | 6.75 µM (inactive) |
| C=CCC(O)c1cc(OC)ccc1OC (configuration not stated) | > 100 µM (inactive) | > 100 µM (inactive) | > 100 µM (inactive) | > 100 µM (inactive) | > 100 µM (inactive) | > 100 µM (inactive) | > 100 µM (inactive) | > 100 µM (inactive) | > 100 µM (inactive) | > 100 µM (inactive) | – | – | > 100 µM (inactive) | > 100 µM (inactive) | > 100 µM (inactive) | > 100 µM (inactive) | – | – | – | – |
| O/N=C(/CC(O)(C(F)(F)F)C(F)(F)F)c1ccccc1 | > 10 µM (inactive) | > 10 µM (inactive) | > 10 µM (inactive) | > 10 µM (inactive) | > 10 µM (inactive) | > 10 µM (inactive) | > 10 µM (inactive) | > 10 µM (inactive) | > 10 µM (inactive) | > 10 µM (inactive) | – | > 10 µM (inactive) | > 10 µM (inactive) | > 10 µM (inactive) | > 10 µM (inactive) | – | > 10 µM (inactive) | > 10 µM (inactive) | > 10 µM (inactive) | > 10 µM (inactive) |
